Experimental findings from patent US12319683B2, “Azabenzimidazole compounds and pharmaceutical” (NIPPON SHINYAKU CO., LTD., priority 2018, dated 2025) are described below.

The structures appear in SMILES notation. Where a name gives a salt, the structure may show the parent alone. Read-outs that look alike come from different tables or passages of the source.

For data set [1], the system named is SD female rats. As to the kind of experiment: Effect on the increase in intravesical pressure induced by electrical stimulation of the pelvic nerve in anesthetized rats. It is filed as in vivo, rat. The conditions noted are these: for change in vivo at 0.3 mg/kg: Rattus norvegicus, iv, 1 h, read-out: Percentage Change (%) Rc of AUC of increase of intravesical pressure (maximum during 1 hour after administration). How it is done:
For evaluation of in vivo effect on neurogenic bladder contraction, effects of the test compounds on the increase in intravesical pressure induced by electrical stimulation of the pelvic nerve in rats were determined according to the following method.
SD female rats (Japan SLC, Inc.) were anesthetized by subcutaneous administration of 1200 mg/kg of urethane (Wako Pure Chemical Corporation), and the lower abdomens of the rats were incised in the midline. After the ureters were ligated and cut at locations proximal to the bladder, a cannula (PE-60, BECTON DICKINSON) for cystometry was inserted into the bladder through the external urethral orifice and fixed with sutures. After injecting saline (about 200 μL) via the cannula inserted into the bladder, the other end of the cannula was connected to a pressure transducer to measure intravesical pressure.
The pelvic nerve near the urinary bladder of the rat was gently separated and dissected under stereomicroscope observation and attached to an electrode for nerve stimulation (K2-14015M-PT, BrainScience idea. Co., Ltd.). The peritoneal cavity of the rat was filled with liquid paraffin (26114-75, NACALAI TESQUE, INC.). After the postoperative rest period, an electrical stimulator (SEN-7203, NIHON KOHDEN CORPORATION) was used to stimulate the pelvic nerve to induce increase in intravesical pressure. The stimulation frequency was 8 Hz, the pulse width was 0.3 ms, and the stimulation time was 10 seconds. The voltage of the electrical stimulator was adjusted so that the increase in intravesical pressure was about 50-70% of that at stimulation with 10 V.
The electric stimulation was repeated with an interval of 10 minutes. After the increase of intravesical pressure induced by electric stimulation was stabilized three times or more, a test compound (dosage 0.3 mg/kg), distigmine bromide (dosage 0.03, 0.1 mg/kg) or a vehicle was intravenously administered at 1.0 mL/kg via the catheter placed into femoral vein. The effect of the test compound on increase of intravesical pressure was measured for 1 hour. Saline was used as a vehicle, and the test compound was dissolved in dimethyl sulfoxide before adding to the vehicle. The final concentration of dimethyl sulfoxide was 10%.
The response data (intravesical pressure) were recorded on a personal computer via data collection and analysis system (PowerLab®, ADInstruments) and analyzed using analysis software (LabChart®, ADInstruments). For each electric stimulation, AUC of increase of intravesical pressure (area under the curve of transition of intravesical pressure) was calculated, and percentage change Rc (unit: %) compared to the value (AUC) before the administration of the test compound was calculated according to the following equation (2). In the equation (2), Ab is AUC before administering a test compound, and Aa is AUC after administering a test compound. In addition, the maximum effect observed during 1 hour after administering the test compound (maximum percentage change Rc) was defined as the effect of the test compound. The higher percentage change Rc, the higher effect on enhancement of bladder contraction force and increase of intravesical pressure. Rc=100×(Aa−Ab)/Ab (2)

Data set [2] relates to SD female rats. The data set is described as above. It is filed as in vivo, rat. The following applies: intravenous, 0.1 mg/kg.
[3] abbreviates: anesthetized SD female rats, pelvic nerve electrical stimulation, test compound 0.3 mg/kg intravenously.

`CCOc1cc(-c2cc(N(C)CC(C)(C)COC)c3[nH]c(-c4cnc(N5CCC(C(=O)O)CC5)cn4)nc3n2)cc(C(F)(F)F)n1` [Example 1, 1-(5-{5-[2-Ethoxy-6-(trifluoromethyl)pyridin-4-yl]-7-[(3-methoxy-2,2-dimethylpropyl)(methyl)amino]-1H-imidazo[4,5-b]pyridin-2-yl}pyrazin-2-yl)piperidine-4-carboxylic acid]: the change in vivo at 0.3 mg/kg with SD female rats [1] (setting [3]) was 326%.
As for `CCOc1cc(-c2cc(N(C)CC3(COC)CCCC3)c3[nH]c(-c4cnc(N5CCC(C(=O)O)CC5)cn4)nc3n2)cc(C(F)(F)F)n1` [Example 2, 1-(5-{5-[2-Ethoxy-6-(trifluoromethyl)pyridin-4-yl]-7-[{[1-(methoxymethyl)cyclopentyl]methyl}(methyl)amino]-1H-imidazo[4,5-b]pyridin-2-yl}pyrazin-2-yl)piperidine-4-carboxylic acid], the change in vivo at 0.3 mg/kg in the data set on SD female rats [1] (setting [3]) amounted to 331%.
As for `CCOCC1(CN(C)c2cc(-c3cnc(C4CC4)c(C(F)(F)F)c3)nc3nc(-c4cnc(N5CCC(C(=O)O)CC5)cn4)[nH]c23)CCCC1` [Example 3, 1-(5-{5-[6-Cyclopropyl-5-(trifluoromethyl)pyridin-3-yl]-7-[{[1-(ethoxymethyl)cyclopentyl]methyl}(methyl)amino]-1H-imidazo[4,5-b]pyridin-2-yl}pyrazin-2-yl)piperidine-4-carboxylic acid], the change in vivo at 0.3 mg/kg in the data set with SD female rats [1] (setting [3]) was 311%.
For `COCC1(CN(C)c2cc(-c3cc(C4CC4)nc(C(F)(F)F)c3)nc3nc(-c4cnc(N5CCC(OCC(=O)O)CC5)cn4)[nH]c23)CCCC1` [Example 4, {[1-(5-{5-[2-Cyclopropyl-6-(trifluoromethyl)pyridin-4-yl]-7-[{[1-(methoxymethyl)cyclopentyl]methyl}(methyl)amino]-1H-imidazo[4,5-b]pyridin-2-yl}pyrazin-2-yl)piperidin-4-yl]oxy}acetic acid], the change in vivo at 0.3 mg/kg in the data set with SD female rats [1] (setting [3]) came out at 123%.
On the same count and under the same terms, in the case of `COCC1(CN(C)c2cc(-c3cnc(C4CC4)c(C(F)(F)F)c3)nc3nc(-c4cnc(N5CCN(CCC(=O)O)CC5)cn4)[nH]c23)CCCCC1` [Example 6, 3-[4-(5-{5-[6-Cyclopropyl-5-(trifluoromethyl)pyridin-3-yl]-7-[{[1-(methoxymethyl)cyclohexyl]methyl}(methyl)amino]-1H-imidazo[4,5-b]pyridin-2-yl}pyrazin-2-yl)piperazin-1-yl]propanoic acid] it was 571%; in that of `COCC1(CN(C)c2cc(-c3cnc(C4CC4)c(C(F)(F)F)c3)nc3nc(-c4cnc(N5CCN(CCC(=O)O)C[C@H]5C)cn4)[nH]c23)CCCCC1` [Example 7, 3-[(3R)-4-(5-{5-[6-Cyclopropyl-5-(trifluoromethyl)pyridin-3-yl]-7-[{[1-(methoxymethyl)cyclohexyl]methyl}(methyl)amino]-1H-imidazo[4,5-b]pyridin-2-yl}pyrazin-2-yl)-3-methylpiperazin-1-yl]propanoic acid], 608%.
The same measure, in the same setting: the figure for `COC[C@@H]1CN(c2cnc(-c3nc4nc(-c5cnc(C6CC6)c(C(F)(F)F)c5)cc(N(C)CC5(COC)CCCCC5)c4[nH]3)cn2)CCN1CCC(=O)O` [Example 8, 3-[(2S)-4-(5-{5-[6-Cyclopropyl-5-(trifluoromethyl)pyridin-3-yl]-7-[{[1-(methoxymethyl)cyclohexyl]methyl}(methyl)amino]-1H-imidazo[4,5-b]pyridin-2-yl}pyrazin-2-yl)-2-(methoxymethyl)piperazin-1-yl]propanoic acid] is 374%.
Consider `COCC1(CN(C)c2cc(-c3cnc(C4CC4)c(C(F)(F)F)c3)nc3nc(-c4ccc(OC5CCN(CC(=O)O)CC5)cc4F)[nH]c23)CCCC1` [Example 10, [4-(4-{5-[6-Cyclopropyl-5-(trifluoromethyl)pyridin-3-yl]-7-[{[1-(methoxymethyl)cyclopentyl]methyl}(methyl)amino]-1H-imidazo[4,5-b]pyridin-2-yl}-3-fluorophenoxy)piperidin-1-yl]acetic acid], for which the change in vivo at 0.3 mg/kg in the data set with SD female rats [1] (setting [3]) was 82.6%.
Take `CCOc1cc(-c2cc(N(C)CC3(COC)CCC3)c3[nH]c(-c4cnc(N5CCC(C(=O)O)CC5)cn4)nc3n2)cc(C(F)(F)F)n1` [Example 11, 1-(5-{5-[2-Ethoxy-6-(trifluoromethyl)pyridin-4-yl]-7-[{[1-(methoxymethyl)cyclobutyl]methyl}(methyl)amino]-1H-imidazo[4,5-b]pyridin-2-yl}pyrazin-2-yl)piperidine-4-carboxylic acid dihydrochloride]: in the data set with SD female rats [1] (setting [3]), the change in vivo at 0.3 mg/kg is 270%.
As for `CCOCC1(CN(C)c2cc(-c3cnc(C4CC4)c(C(F)(F)F)c3)nc3nc(-c4cnc(N5CCN(CCC(=O)O)C[C@H]5C)cn4)[nH]c23)CCCC1` [Example 14, Sodium 3-[(3R)-4-(5-{5-[6-cyclopropyl-5-(trifluoromethyl)pyridin-3-yl]-7-[{[1-(ethoxymethyl)cyclopentyl]methyl}(methyl)amino]-1H-imidazo[4,5-b]pyridin-2-yl}pyrazin-2-yl)-3-methylpiperazin-1-yl]propanoate], the change in vivo at 0.3 mg/kg in the data set on SD female rats [1] (setting [3]) is 400%.
For `CCOc1cc(-c2cc(N(C)CC3(COC)CCCC3)c3[nH]c(-c4cnc(N5[C@@H]6CC[C@H]5C[C@@H](OCC(=O)O)C6)cn4)nc3n2)cc(C(F)(F)F)n1` [Example 15, Sodium {[(1R,3r,5S)-8-(5-{5-[2-ethoxy-6-(trifluoromethyl)pyridin-4-yl]-7-[{[1-(methoxymethyl)cyclopentyl]methyl}(methyl)amino]-1H-imidazo[4,5-b]pyridin-2-yl}pyrazin-2-yl)-8-azabicyclo[3.2.1]octan-3-yl]oxy}acetate], the change in vivo at 0.3 mg/kg in the data set on SD female rats [1] stood at 276%.
Take `COCC1(CN(C)c2cc(-c3cc(C4CC4)nc(C(F)(F)F)c3)nc3nc(-c4cnc(N5CCN(CCC(=O)O)C[C@H]5C)cn4)[nH]c23)CCCCC1` [Example 16, Sodium 3-[(3R)-4-(5-{5-[2-cyclopropyl-6-(trifluoromethyl)pyridin-4-yl]-7-[{[1-(methoxymethyl)cyclohexyl]methyl}(methyl)amino]-1H-imidazo[4,5-b]pyridin-2-yl}pyrazin-2-yl)-3-methylpiperazin-1-yl]propanoate]: in the data set on SD female rats [1] (setting [3]), the change in vivo at 0.3 mg/kg worked out at 182%.
Still for that read-out and setting: in the case of `COCC1(CN(C)c2cc(-c3cnc(C4CC4)c(C(F)(F)F)c3)nc3nc(-c4cnc(N5CCN(CCC(=O)O)C[C@H]5C)cn4)[nH]c23)CCCC1` [Example 20, Sodium 3-[(3R)-4-(5-{5-[6-Cyclopropyl-5-(trifluoromethyl)pyridin-3-yl]-7-[{[1-(methoxymethyl)cyclopentyl]methyl}(methyl)amino]-1H-imidazo[4,5-b]pyridin-2-yl}pyrazin-2-yl)-3-methylpiperazin-1-yl]propanoate] it was 249%.
Take `COCC1(CN(C)c2cc(-c3cc(F)cc(C(F)(F)F)c3)nc3nc(-c4cnc(N5CCN(CC(=O)O)CC5)cn4)[nH]c23)CCC1` [Example 37]: the change in vivo at 0.3 mg/kg in the data set on SD female rats [1] (setting [3]) is 91.2%.
For `COCC1(CN(C)c2cc(-c3cc(F)cc(C(F)(F)F)c3)nc3nc(-c4cnc(N5CCC(F)(C(=O)O)CC5)cn4)[nH]c23)CCC1` [Example 38], the change in vivo at 0.3 mg/kg with SD female rats [1] (setting [3]) amounted to 98.1%.
Still for that read-out and setting: the figure for `CCOc1ncc(-c2cc(N(C)CC3(COC)CCC3)c3[nH]c(-c4cnc(N5CCC(C(=O)O)CC5)cn4)nc3n2)cc1C(F)(F)F` [Example 42] is 119%; for `CCOc1ncc(-c2cc(N(C)CC3(COC)CCCC3)c3[nH]c(-c4ccc(N5CCC(C(=O)O)CC5)cc4F)nc3n2)cc1C(F)(F)F` [Example 68] it is 133%.
With `CN(CCCCCCN(C)C(=O)Oc1ccc[n+](C)c1)C(=O)Oc1ccc[n+](C)c1` [distigmine bromide, reference compound], the “enhancement effect on bladder contractility” value in the data set with SD female rats [1] (anesthetized rats, intravenous, test compound 0.3 mg/kg, distigmine bromide 0.03, 0.1 mg/kg, electrical stimulation of pelvic nerve) is reported as “showed enhancement of bladder contractility”. In addition, the “nicotinic side effect (fasciculation)” value in the data set with SD female rats [2] was “observed”.
